The values below come from patent publication EP1345943B1, “INHIBITORS OF PAPILLOMA VIRUS” (BOEHRINGER INGELHEIM (CANADA) LTD., priority 2000, dated 2002).

Chain of E1-E2-DNA complex (P04015 whole entry, one chain of several): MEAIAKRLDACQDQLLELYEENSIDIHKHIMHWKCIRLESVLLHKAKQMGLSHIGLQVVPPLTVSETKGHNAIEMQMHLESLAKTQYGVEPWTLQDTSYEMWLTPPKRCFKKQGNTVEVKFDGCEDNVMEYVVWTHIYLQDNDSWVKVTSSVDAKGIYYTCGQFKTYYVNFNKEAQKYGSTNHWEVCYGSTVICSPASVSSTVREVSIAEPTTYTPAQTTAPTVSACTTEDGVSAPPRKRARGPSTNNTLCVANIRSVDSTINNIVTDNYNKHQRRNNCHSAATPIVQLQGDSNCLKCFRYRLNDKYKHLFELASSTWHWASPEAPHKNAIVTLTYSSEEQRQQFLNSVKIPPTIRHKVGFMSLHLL

The experiment addresses E1-E2-DNA complex (Human papillomavirus 11, UniProt P04015). The experiment in a line: E2-dependent E1 DNA binding assay (E1-E2 DNA assay). The conditions noted are these: E1-E2 DNA assay of Example 11, HPV-11. How it is done: This particular assay determines the ability of a test compound to inhibit the activity (IC50) of HPV-11 DNA replication. More specifically, in the assay described herein, the inhibitory activity of the test compound is evaluated based on its ability to interfere with the E1-E2-DNA origin of replication interaction, thereby inhibiting initiation of viral DNA replication.
This assay was modeled on a similar assay for SV40 T Antigen described by McKay (J. Mol. Biol., 1981,145:471). A 400bp radiolabeled DNA probe, containing the -HPV-11 origin of replication (Chiang et al.., 1992, Proc. Natl.-Acad. Sci. USA 89:5799) was produced by pcr, using plasmid pBluescript™ SK encoding the origin (nucleotides 7886-61 of the HPV-11 genome in unique BAMH1 site) as template and primers flanking the origin. Radiolabel was incorporated as [33p]dCTP. Binding assay buffer consisted of: 20 mM Tris pH 7.6, 100 mM NaCI, 1 mM DTT, 1 mM EDTA.
Other reagents used were protein A-SPA beads (type II, Amersham) and K72 rabbit polyclonal antiserum, raised against a peptide corresponding to the C-terminal 14 amino acids of HPV-11 E1. Following the protocol from Amersham, one bottle of beads was mixed with 25 mL of binding assay buffer. For the assay, a saturating amount of K72 antiserum was added to the beads and the mixture was incubated for 1 h, washed with one volume of binding assay buffer, and then resuspended in the same volume of fresh binding assay buffer. Binding reactions contained 8 ng of E2, approximately 100-200 ng of purified E1, and 0.4 ng of radiolabeled probe in a total of 80 µL of binding assay buffer. After 1 h at room temperature, 25 µL of K72 antibody-SPA bead suspension was added to with the binding reaction and mixed. After an additional hour of incubation at room temperature, the reactions were centrifuged briefly to pellet the beads and the extent of complex formation was determined by scintillation counting on a Packard TopCount™. Typically, the signal for reactions containing E1 and E2 was 20-30 fold higher than the background observed when either E1, E2, or both was omitted.
Regarding `CC(=O)c1ccc(NC(=O)C2C(c3ccc(C(F)(F)F)c(F)c3)OC3(C(=O)c4ccccc4C3=O)C2C(=O)O)cc1` (centres unmarked) [Compound 1067], the IC50 lay in the range of 5 to 50 µM.

For `O=C(Nc1ccc(-c2csnn2)cc1)C1C(c2ccc(Br)c(Br)c2)OC2(C(=O)c3ccccc3C2=O)C1C(=O)O` (single isomer, unassigned) [Compound A1001], the IC50 was in the range of 5 to 50 µM.

The compound `O=C(Nc1ccc(F)cc1)C1C(c2ccc(Cl)cc2)OC2(C(=O)c3ccccc3C2=O)C1C(=O)O` (centres unmarked) [Compound 1003] had an IC50 of 5 to 50 µM.

The compound `CC(=O)c1ccc(NC(=O)C2C(c3ccc4ccccc4c3)OC3(C(=O)c4ccccc4C3=O)C2C(=O)O)cc1` (centres unmarked) [Compound 4004] gave an IC50 of 0.5 to 5 µM.

Regarding `CC(=O)c1ccc(NC(=O)C2C(c3ccc(F)c(Cl)c3)OC3(C(=O)c4ccccc4C3=O)C2C(=O)O)cc1` (centres unmarked) [Compound 1094], the 50% inhibitory concentration (IC50) was 0.5 to 5 µM.

As to `CC(=O)c1ccc(NC(=O)C2C(C=Cc3cccc(Br)c3)OC3(C(=O)c4ccccc4C3=O)C2C(=O)O)cc1` (centres unmarked) [Compound 4006], the IC50 fell in the range of 5 to 50 µM.

The compound `O=C(Nc1ccc(F)c(F)c1)C1C(c2ccc(F)c(Cl)c2)OC2(C(=O)c3ccccc3C2=O)C1C(=O)O` (centres unmarked) [Compound 1122] had an IC50 of 5 to 50 µM.

`O=C(Nc1ccc2c(c1)OCO2)C1C(c2ccc(Cl)c(Cl)c2)OC2(C(=O)c3ccccc3C2=O)C1C(=O)O` (centres unmarked) [Compound 1002] gave an IC50 of less than 0.5 µM.

Turning to `CC(=O)Nc1ccc(NC(=O)C2C(c3ccc(Cl)c(Cl)c3)OC3(C(=O)c4ccccc4C3=O)C2C(=O)O)cc1` (centres unmarked) [Compound 1035], the concentration for half-maximal inhibition (IC50) was less than 0.5 µM.

In the case of `O=C(NCCc1ccccc1)C1C(c2ccc(Br)c(Br)c2)OC2(C(=O)c3ccccc3C2=O)C1C(=O)O` (centres unmarked) [Compound 1097], the concentration for half-maximal inhibition (IC50) is less than 0.5 µM.

As to `O=C(Nc1ccc(OC(F)(F)F)cc1)C1C(c2ccc(Cl)c(Cl)c2)OC2(C(=O)c3ccccc3C2=O)C1C(=O)O` (centres unmarked) [Compound 1112], the IC50 lay in the range of 0.5 to 5 µM.

`Cc1ccc2c(c1)C(=O)C13OC(c4ccc(Br)c(Br)c4)C(C(=O)Nc4ccc(N5CCOCC5)cc4)C1C(=O)OC23O` (single isomer, unassigned) [Compound B1002] came in with a concentration for half-maximal inhibition (IC50) of less than 0.5 µM.

`O=C(NCCc1ccccc1Cl)C1C(c2ccc(Cl)c(Cl)c2)OC2(C(=O)c3ccccc3C2=O)C1C(=O)O` (centres unmarked) [Compound 1135]: the 50% inhibitory concentration (IC50) is less than 0.5 µM.

Turning to `O=C(Nc1ccc2c(c1)OCO2)C1C(c2ccc(Cl)cc2)OC2(C(=O)c3cccc(F)c3C2=O)C1C(=O)O` (centres unmarked) [Compound 1019], the IC50 lay within 5 to 50 µM.

Compound `O=C(NN1CCOCC1)C1C(c2ccc(Cl)c(Cl)c2)OC2(C(=O)c3ccccc3C2=O)C1C(=O)O` (centres unmarked) [Compound 1043] had an IC50 of 0.5 to 5 µM.

`O=C(NCc1ccccc1)C1C(c2ccc(Cl)cc2)OC23C(=O)c4ccccc4C2(O)OC(=O)C13` (racemic) [Compound 3003] had an IC50 of 5 to 50 µM.

In turn, `O=C(Nc1ccc2c(c1)OCO2)C1C(c2cc3ccccc3o2)OC2(C(=O)c3ccccc3C2=O)C1C(=O)O` (centres unmarked) [Compound 4002] registered a half-inhibitory concentration (IC50) of 5 to 50 µM.

Regarding `O=C(Nc1ccc2c(c1)OCO2)C1C(c2ccc(Cl)c(Cl)c2)OC2(C(=O)c3cccc(F)c3C2=O)C1C(=O)O` (centres unmarked) [Compound 1051], the IC50 is 0.5 to 5 µM.

The compound `Cc1ccc(C2OC3(C(=O)c4ccccc4C3=O)C(C(=O)O)C2C(=O)Nc2cnc3ccccc3c2)cc1C` (centres unmarked) [Compound 1071] gave a half-maximal inhibitory concentration (IC50) of 5 to 50 µM.

`Cc1ccc(NC(=O)C2C(c3ccc(F)c(F)c3)OC3(C(=O)c4ccccc4C3=O)C2C(=O)O)cc1` (centres unmarked) [Compound 1132] came in with an IC50 of 5 to 50 µM.

In the case of `Cc1ccc2nc(-c3ccc(NC(=O)C4C(c5ccc(Cl)c(Cl)c5)OC5(C(=O)c6ccccc6C5=O)C4C(=O)O)cc3)sc2c1` (centres unmarked) [Compound 1028], the half-inhibitory concentration (IC50) is less than 0.5 µM.

The compound `O=C1C2C(c3ccc(Cl)cc3)OC3(C(=O)c4ccccc4C3=O)C2C(=O)N1c1ccc2c(c1)CCC2` (centres unmarked) [Compound 2012] showed an IC50 of 5 to 50 µM.

On to `O=C(NN1CCOCC1)C1C(c2ccc(Br)c(Br)c2)OC2(C(=O)c3ccccc3C2=O)C1C(=O)O` (racemic) [Compound 1075], for which the IC50 lay within 0.5 to 5 µM.

`COC(=O)C1C(C(=O)Nc2ccc3c(c2)OCO3)C(c2ccc(Cl)c(Cl)c2)OC12C(=O)c1ccccc1C2=O` (racemic) [Compound 1022] displayed an IC50 of 0.5 to 5 µM.

The compound `[N-]=[N+]=Nc1c(F)c(F)c(CNC(=O)C2C(c3ccc(Cl)c(Cl)c3)OC34C(=O)c5ccccc5C3(O)OC(=O)C24)c(F)c1F` (racemic) [Compound 3008] had an IC50 of 5 to 50 µM.

On to `O=C(Nc1ccc2c(c1)OCO2)C1C(c2ccc(Cl)c(Cl)c2)OC2(C(=O)c3ccccc3C2=O)C1C(=O)O` (racemic) [Compound 5001], for which the IC50 fell in the range of 0.5 to 5 µM.

`Cc1ccc2c(c1)C(=O)C1(OC(c3ccc(Cl)c(Cl)c3)C(C(=O)Nc3ccc4c(c3)OCO4)C1C(=O)O)C2=O` (centres unmarked) [Compound 1037] came in with a concentration for half-maximal inhibition (IC50) of 0.5 to 5 µM.

Turning to `O=C(Nc1ccccc1OC(F)(F)F)C1C(c2ccc(Cl)c(Cl)c2)OC2(C(=O)c3ccccc3C2=O)C1C(=O)O` (centres unmarked) [Compound 1139], the IC50 is 0.5 to 5 µM.

Turning to `CC(=O)c1ccc(NC(=O)C2C(C(C)=Cc3ccccc3)OC3(C(=O)c4ccccc4C3=O)C2C(=O)O)cc1` (racemic) [Compound 4009], the 50% inhibitory concentration (IC50) was 5 to 50 µM.

Regarding `O=C(Nc1ccc2c(c1)OCO2)C1C(c2cccc(C(F)(F)F)c2)OC2(C(=O)c3ccccc3C2=O)C1C(=O)O` (centres unmarked) [Compound 1031], the IC50 is 0.5 to 5 µM.

Compound `O=C(NC1CC1c1ccccc1)C1C(c2ccc(Cl)c(Cl)c2)OC2(C(=O)c3ccccc3C2=O)C1C(=O)O` (centres unmarked) [Compound 1058] showed a half-maximal inhibitory concentration (IC50) of 0.5 to 5 µM.

Compound `Cc1ccc(C2OC3(C(=O)c4ccccc4C3=O)C(C(=O)O)C2C(=O)Nc2ccc3c(c2)OCO3)cc1C` (centres unmarked) [Compound 1024] had an IC50 of 0.5 to 5 µM.

With `CC(=O)c1ccc(NC(=O)C2C(c3ccc(Cl)c(Cl)c3)OC3(C(=O)c4ccccc4C3=O)C2C(=O)O)cc1` (racemic) [Compound 1047], the IC50 fell in the range of 0.5 to 5 µM.

Turning to `O=C(Nc1ccc(N2CCOCC2)cc1)C1C(c2ccc(Br)c(Br)c2)OC2(C(=O)c3ccccc3C2=O)C1C(=O)O` (single isomer, unassigned) [Compound A1013], the IC50 was less than 0.5 µM.

The compound `O=C(Nc1ccc(N2CCOCC2)cc1)C1C(c2ccc(Br)c(Br)c2)OC2(C(=O)c3ccc(F)cc3C2=O)C1C(=O)O` (centres unmarked) [Compound 1144] gave an IC50 of less than 0.5 µM.

Turning to `Cc1cccc(N2C(=O)C3C(c4ccc(Cl)cc4)OC4(C(=O)c5ccccc5C4=O)C3C2=O)c1` (centres unmarked) [Compound 2010], the half-inhibitory concentration (IC50) was in the range of 5 to 50 µM.

In the case of `Cc1ccc2c(c1)C1(O)OC(=O)C3C(C(=O)NCCc4ccccc4Cl)C(c4ccc(Br)c(Br)c4)OC31C2=O` (single isomer, unassigned) [Compound B1007], the IC50 was less than 0.5 µM.

`O=C(Nc1ccc(-c2csnn2)cc1)C1C(c2ccc(Br)c(Br)c2)OC2(C(=O)c3ccccc3C2=O)C1C(=O)O` (racemic) [Compound 1076] yielded an IC50 of less than 0.5 µM.

Consider `O=C(Nc1ccc(Br)c(Cl)c1)C1C(c2ccc(Cl)c(Cl)c2)OC2(C(=O)c3ccccc3C2=O)C1C(=O)O` (centres unmarked) [Compound 1104], for which the 50% inhibitory concentration (IC50) lay within 0.5 to 5 µM.

`CC(=O)c1ccc(NC(=O)C2C(c3ccc(F)c(F)c3)OC3(C(=O)c4ccccc4C3=O)C2C(=O)O)cc1` (centres unmarked) [Compound 1064] returned an IC50 of 5 to 50 µM.

In the case of `O=C(Nc1ccc2c(c1)OCO2)C1C(c2ccc(Cl)cc2)OC2(C(=O)c3ccccc3C2=O)C1C(=O)O` (centres unmarked) [Compound 1001], the IC50 is 5 to 50 µM.

In turn, `O=C(NCCc1ccccc1)C1C(c2ccc(Cl)c(Cl)c2)OC2(C(=O)c3ccccc3C2=O)C1C(=O)O` (racemic) [Compound 1077] showed an IC50 of less than 0.5 µM.

Compound `O=C(Nc1ccc2c(c1)OCO2)C1C(c2ccc(Cl)c(F)c2)OC2(C(=O)c3ccccc3C2=O)C1C(=O)O` (centres unmarked) [Compound 1029] came in with a 50% inhibitory concentration (IC50) of 0.5 to 5 µM.

`CC(=O)c1ccc(NC(=O)C2C(c3cccc(Cl)c3)OC3(C(=O)c4ccccc4C3=O)C2C(=O)O)cc1` (centres unmarked) [Compound 1044] yielded an IC50 of 5 to 50 µM.

Consider `CC(=O)c1ccc(NC(=O)C2C(c3ccc(Cl)c(Cl)c3)OC34C(=O)c5ccccc5C3(O)OC(=O)C24)cc1` (racemic) [Compound 3009], for which the IC50 is less than 0.5 µM.

`O=C(Nc1ccc(N2CCOCC2)cc1)C1C(c2ccc(Br)c(Br)c2)OC2(C(=O)c3ccccc3C2=O)C1C(=O)O` (centres unmarked) [10,001] came in with an IC50 of 0.5 to 5 µM.

`O=C(Nc1ccc2c(c1)OCO2)C1C(c2cc(Cl)cc(Cl)c2)OC2(C(=O)c3ccccc3C2=O)C1C(=O)O` (centres unmarked) [Compound 1020] showed an IC50 of 5 to 50 µM.

`CC(=O)c1ccc(NC(=O)C2C(c3ccc(Cl)c(Cl)c3)OC34C(=O)c5sc(C)cc5C3(O)OC(=O)C24)cc1` (centres unmarked) [Compound C1001] displayed an IC50 of 5 to 50 µM.

On to `CCOc1ccccc1NC(=O)C1C(c2ccc(Cl)c(Cl)c2)OC2(C(=O)c3ccccc3C2=O)C1C(=O)O` (centres unmarked) [Compound 1136], for which the half-maximal inhibitory concentration (IC50) was 5 to 50 µM.

For `O=C(NC1Cc2ccccc2C1)C1C(c2ccc(Br)c(Br)c2)OC2(C(=O)c3ccccc3C2=O)C1C(=O)O` (centres unmarked) [Compound 1113], the half-inhibitory concentration (IC50) was less than 0.5 µM.
